Data: patent US5162318A, “Benzimidazolinone derivatives” (Yamanouchi Pharmaceutical Co., Ltd., priority 1990, dated 1992)
Structures can show the parent of a compound that is named as a salt.

Assays:
[1] = tested on: pulmonary surfactant secretion; assay: Stimulatory effect on pulmonary surfactant secretion (disaturated phosphatidylcholine in bronchoalveolar lavage fluid); type: in vivo, guinea pig (male Hartley); conditions: guinea pigs; for Pharmacological activity: % increase of disaturated phosphatidylcholine (DSPC) compared to control values: 50 mg/kg i.p. once, lavage 3 hours later, number of animals in parentheses, * significantly different from control values (p < 0.05), Compounds A and B not marked *; for stimulation of pulmonary surfactant secretion (in words): conclusion from Table 1, 50 mg/kg i.p.
Method: The stimulatory effect of the compound of the present invention on pulmonary surfactant secretion In the experiment, male Hartley guinea pigs weighing 300-350 g were used. Methods 50 mg/kg of the test compound was intraperitoneally administered to guinea pigs once. Three hours later, the animals were anesthetized with 100 mg/kg of pentobarbital sodium and sacrificed by bleeding from the abdominal aorta and vena cava. Then, bronchoalveolar lavage with 10 ml/kg of ice-cooled physiological saline was performed twice. The combined bronchoalveolar lavage fluid was centrifuged at 1,000 rpm for 10 minutes at 4° C. From the supernatant of bronchoalveolar lavage fluid, the lipid was extracted in accordance with the method of Folch et al. (Journal of Biological Chemistry, 226, 497-502, 1957). The characteristic component of pulmonary surfactant, i.e., disaturated phosphatidylcholine was extracted by the method of Gilfillan et al. (Journal of Lipid Research, 24, 1651- 1656, 1983). The disaturated phosphatidylcholine was assayed with Nescoat PL Kit-K (Nippon Shoji Co., Ltd.) and the percent increase compared to a control group was determined (M. Takayama, et al.: Clin. Chim. Acta, 79, 93-98, 1977).

[2] = tested on: secretion of the endogenous pulmonary surfactant; conditions: Post et al.: Lung 161, 349-359, 1983; cited from earlier work

| Compound | Pharmacological activity: % increase of disaturated phosphatidylcholine (DSPC) compared to control values [1] | stimulation of pulmonary surfactant secretion (in words) [1] | activity to promote secretion of the endogenous pulmonary surfactant (in words) [2] |
| --- | --- | --- | --- |
| CN(C)CCn1c(=O)[nH]c2ccc(Br)cc21.Cl [3(5), 6-Bromo-1,3-dihydro-1-(2-dimethylaminoethyl)-2H-benzimidazol-2-one hydrochloride] | 27.9 ± 6.2% | – | – |
| CN(C)CCn1c(=O)[nH]c2c(Br)cc(Br)cc21.Cl [4(3), 4,6-Dibromo-1,3-dihydro-1-(2-dimethylaminoethyl)-2H-benzimidazol-2-one hydrochloride] | 32.3 ± 7.0% | – | – |
| CN(C)CCn1c(=O)[nH]c2ccc(Cl)cc21.Cl [11(4), 6-Chloro-1,3-dihydro-1-(2-dimethylaminoethyl)-2H-benzimidazol-2-one hydrochloride] | 37.8 ± 13.2% | – | – |
| Cl.O=c1[nH]c2ccc(Cl)cc2n1CCN1CCCC1 [19(4), 6-Chloro-1,3-dihydro-1-[2-(1-pyrrolidinyl)ethyl]-2H-benzimidazol-2-one hydrochloride] | 33.1 ± 8.3% | – | – |
| CN(C)CCCn1c(=O)[nH]c2ccccc21 [Compound A, 1,3Dihydro-1-(3-dimethylaminopropyl)-2H-benzimidazol-2-one] | -9.3% | do not stimulate secretion of pulmonary surfactant but rather tend to decrease the secretion | – |
| CCN(CC)CCn1c(=O)[nH]c2ccccc21 [Compound B, 1,3Dihydro-1-(2-diethylaminoethyl)-2H-benzimidazol-2-one] | -20.7% | do not stimulate secretion of pulmonary surfactant but rather tend to decrease the secretion | – |
| CN(C)CCn1c(=O)[nH]c2ccccc21.Cl [Example 12(5), 1,3-dihydro-1-(2-dimethylaminoethyl)-2H-benzimidazol-2-one hydrochloride] | 27.4 ± 4.9% | – | – |
| Nc1c(Br)cc(Br)cc1CN[C@H]1CC[C@H](O)CC1 [ambroxol hydrochloride] | – | – | only substance known to have such activity |
